Data on eleven molecules can be found in PMC2950628 (Journal of medicinal chemistry, 2008).

Some results are limits rather than exact numbers.

System in the first data set: not listed separately
Kind of data set: Solubility in D2O confirmed by NMR. The data set is classed as physicochemical.
Details: not given
Consider `CCCCC(=O)c1ccc(OC)c(OC2CCNCC2)c1` [5i, 1-[4-Methoxy-3-(piperidin-4-yloxy)phenyl]pentan-1-one], for which the solubility was no more than 800 µM.

Staying with this data set, now noted: NMR study conditions.
Take `CCCC(=O)c1ccc(OC(F)F)c(Oc2ccccn2)c1` [5zi, 1-[4-Difluoromethoxy-3-(pyridin-2-yloxy)phenyl]butan-1-one]: the “solubility / behaviour in NMR sample” value is “solubility and nonspecific binding problems”.

In another data set the test system is PDE4.
Assay: not given
Particulars: Table 5, external test set s1–s9 from literature ref 19; cited from earlier work.
Turning to `COc1ccc(C(=O)Nc2c(F)cccc2F)cc1O` [s4], the “actual pIC50” value was 4.43. Turning to `COc1ccc(C(=O)Nc2c(Cl)cccc2Cl)cc1OC1CCCC1` [s3], the “actual pIC50” value is recorded as 7.55. Turning to `COc1ccc(C(=O)Nc2c(F)cccc2F)cc1OC1CCCCC1` [s5], the “actual pIC50” value is 6.40.

On to `COc1ccc(C(=S)Nc2c(Cl)cccc2Cl)cc1OC1CCCC1` [s9], for which the “actual pIC50” value is 6.70. With `COc1ccc(C(=O)Nc2ccccc2C(F)(F)F)cc1OC1CCCC1` [s2], the “actual pIC50” value is 5.51. Take `COc1ccc(C(=O)Nc2c(F)cccc2F)cc1OC1CCCC1` [s6]: the “actual pIC50” value is listed as 7.15. Turning to `COc1ccc(C(=O)Nc2ccccc2Cl)cc1OC` [s7], the “actual pIC50” value was 6.19. As for `CCCOc1cc(C(=O)Nc2c(F)cccc2F)ccc1OC` [s8], the “actual pIC50” value is listed as 5.80. For the molecule `COc1ccc(C(=O)Nc2ccccc2F)cc1OC1CCCC1` [s1], the “actual pIC50” value was 4.97.
